Laboratory results reported in ChEMBL document CHEMBL5518224, “Rational Design of PARP1/c-Met Dual Inhibitors for Overcoming PARP1 Inhibitor Resistance Induced by c-Met Overexpression” (J Med Chem, 2024).
Active and inactive are the calls of the source. The rule behind the calls is not given here.

Assays:
[1] = system: MDA-MB-231; test: Potency index, ratio of olaparib IC50 to test compound IC50 for antiproliferative activity against human MDA-MB-231 cells harboring wild type BRCA and c-Met amplification assessed as inhibition of cell growth incubated for 7 days by MTT assay; type: functional; details: time 7 day
[2] = system: Olaparib-resistant HCT116; test: Potency index, ratio of olaparib IC50 to test compound IC50 for antiproliferative activity against human Olaparib-resistant HCT116 cells harboring BRCA2 mutant assessed as inhibition of cell growth incubated for 7 days by MTT assay; type: functional; details: time 7 day
[3] = Potency index, ratio of olaparib IC50 to test compound IC50 for antiproliferative activity against human Olaparib-resistant HCC1937 cells harboring BRCA1 mutant and PARP1 overexpression assessed as inhibition of cell growth incubated for 7 days by MTT assay; type: functional; details: time 7 day
[4] = system: MDA-MB-231; test: Induction of apoptosis in human MDA-MB-231 cells assessed as dead cells at 1 uM incubated for 4 days by Annexin V-FITC/PI staining based flow cytometry analysis (reference value: 0.72%); type: functional; details: time 4 day
[5] = system: Olaparib-resistant HCT116; test: Antiproliferative activity against human Olaparib-resistant HCT116 cells harboring BRCA2 mutant assessed as inhibition of cell growth incubated for 7 days by MTT assay; type: functional, cell-based; details: Olaparib-resistant HCT116, 168 h
[6] = system: MDA-MB-231; test: Antiproliferative activity against human MDA-MB-231 cells harboring wild type BRCA and c-Met amplification assessed as inhibition of cell growth incubated for 7 days by MTT assay; type: functional, cell-based; details: MDA-MB-231, 168 h
[7] = system: MDA-MB-468; test: Potency index, ratio of crizotinib IC50 to test compound IC50 for antiproliferative activity against human MDA-MB-468 cells harboring wild type BRCA1/2, HR-proficient and non-c-Met amplification assessed as inhibition of cell growth incubated for 7 days by MTT assay; type: functional; details: time 7 day
[8] = system: MDA-MB-231; test: Induction of apoptosis in human MDA-MB-231 cells assessed as late apoptotic cells at 1 uM incubated for 4 days by Annexin V-FITC/PI staining based flow cytometry analysis (reference value: 0.81%); type: functional; details: time 4 day
[9] = system: MDA-MB-231; test: Induction of apoptosis in human MDA-MB-231 cells assessed as live cells at 0.5 uM incubated for 4 days by Annexin V-FITC/PI staining based flow cytometry analysis (reference value: 94.6%); type: functional; details: time 4 day
[10] = system: MDA-MB-231; test: Induction of apoptosis in human MDA-MB-231 cells assessed as early apoptotic cells at 0.5 uM incubated for 4 days by Annexin V-FITC/PI staining based flow cytometry analysis (reference value: 3.88%); type: functional; details: time 4 day
[11] = system: MDA-MB-468; test: Potency index, ratio of olaparib IC50 to test compound IC50 for antiproliferative activity against human MDA-MB-468 cells harboring wild type BRCA1/2, HR-proficient and non-c-Met amplification assessed as inhibition of cell growth incubated for 7 days by MTT assay; type: functional; details: time 7 day
[12] = system: MDA-MB-231; test: Induction of apoptosis in human MDA-MB-231 cells assessed as dead cells at 0.5 uM incubated for 4 days by Annexin V-FITC/PI staining based flow cytometry analysis (reference value: 0.72%); type: functional; details: time 4 day
[13] = biological target: Poly [ADP-ribose] polymerase 1 (Homo sapiens, UniProt P09874); test: Inhibition of PARP1 (unknown origin) using histone as substrate incubated for 45 mins by absorbance based analysis
Sequence of Poly [ADP-ribose] polymerase 1 (P09874 whole entry): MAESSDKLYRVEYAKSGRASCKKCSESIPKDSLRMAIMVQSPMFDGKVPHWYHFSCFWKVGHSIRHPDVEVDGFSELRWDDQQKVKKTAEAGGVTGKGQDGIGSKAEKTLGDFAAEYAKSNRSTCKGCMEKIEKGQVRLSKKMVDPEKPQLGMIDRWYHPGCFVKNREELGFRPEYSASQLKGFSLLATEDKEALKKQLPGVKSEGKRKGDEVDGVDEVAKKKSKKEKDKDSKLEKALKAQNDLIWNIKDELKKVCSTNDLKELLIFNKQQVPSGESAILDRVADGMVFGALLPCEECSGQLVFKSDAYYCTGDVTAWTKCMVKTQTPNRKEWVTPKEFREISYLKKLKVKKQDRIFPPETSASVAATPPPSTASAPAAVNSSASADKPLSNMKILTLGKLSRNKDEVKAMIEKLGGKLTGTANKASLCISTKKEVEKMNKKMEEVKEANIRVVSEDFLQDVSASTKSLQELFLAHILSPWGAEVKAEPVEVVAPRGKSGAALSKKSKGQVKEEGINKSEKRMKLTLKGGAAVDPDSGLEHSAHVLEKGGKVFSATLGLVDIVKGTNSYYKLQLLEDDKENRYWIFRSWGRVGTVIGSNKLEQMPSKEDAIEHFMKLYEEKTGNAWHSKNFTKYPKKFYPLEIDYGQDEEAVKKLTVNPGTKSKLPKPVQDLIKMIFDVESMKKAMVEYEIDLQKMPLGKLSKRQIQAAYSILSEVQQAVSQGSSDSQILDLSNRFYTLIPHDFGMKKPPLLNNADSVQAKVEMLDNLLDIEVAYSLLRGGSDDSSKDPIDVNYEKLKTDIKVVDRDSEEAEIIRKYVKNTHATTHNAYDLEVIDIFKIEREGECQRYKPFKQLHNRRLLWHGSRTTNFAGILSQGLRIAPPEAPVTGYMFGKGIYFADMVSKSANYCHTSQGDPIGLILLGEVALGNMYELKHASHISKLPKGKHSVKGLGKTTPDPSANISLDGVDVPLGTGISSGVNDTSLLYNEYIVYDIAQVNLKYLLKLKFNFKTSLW

[14] = system: MDA-MB-231; test: Induction of apoptosis in human MDA-MB-231 cells assessed as late apoptotic cells at 0.5 uM incubated for 4 days by Annexin V-FITC/PI staining based flow cytometry analysis (reference value: 0.81%); type: functional; details: time 4 day
[15] = Cytotoxicity against NRK cells assessed as inhibition of cell growth incubated for 72 hrs by MTT assay; type: toxicity, cell-based; details: rat
[16] = system: MDA-MB-231; test: Induction of apoptosis in human MDA-MB-231 cells assessed as early apoptotic cells at 1 uM incubated for 4 days by Annexin V-FITC/PI staining based flow cytometry analysis (reference value: 3.88%); type: functional; details: time 4 day
[17] = system: MDA-MB-231; test: Induction of apoptosis in human MDA-MB-231 cells assessed as live cells at 1 uM incubated for 4 days by Annexin V-FITC/PI staining based flow cytometry analysis (reference value: 94.6%); type: functional; details: time 4 day
[18] = Antiproliferative activity against human Olaparib-resistant HCC1937 cells harboring BRCA1 mutant and PARP1 overexpression assessed as inhibition of cell growth incubated for 7 days by MTT assay; type: functional, cell-based; details: Olaparib-resistant HCC1937, 168 h
[19] = biological target: Hepatocyte growth factor receptor (Homo sapiens, UniProt P08581); test: Inhibition of c-Met (unknown origin) by HTRF method
Sequence of Hepatocyte growth factor receptor (P08581 whole entry): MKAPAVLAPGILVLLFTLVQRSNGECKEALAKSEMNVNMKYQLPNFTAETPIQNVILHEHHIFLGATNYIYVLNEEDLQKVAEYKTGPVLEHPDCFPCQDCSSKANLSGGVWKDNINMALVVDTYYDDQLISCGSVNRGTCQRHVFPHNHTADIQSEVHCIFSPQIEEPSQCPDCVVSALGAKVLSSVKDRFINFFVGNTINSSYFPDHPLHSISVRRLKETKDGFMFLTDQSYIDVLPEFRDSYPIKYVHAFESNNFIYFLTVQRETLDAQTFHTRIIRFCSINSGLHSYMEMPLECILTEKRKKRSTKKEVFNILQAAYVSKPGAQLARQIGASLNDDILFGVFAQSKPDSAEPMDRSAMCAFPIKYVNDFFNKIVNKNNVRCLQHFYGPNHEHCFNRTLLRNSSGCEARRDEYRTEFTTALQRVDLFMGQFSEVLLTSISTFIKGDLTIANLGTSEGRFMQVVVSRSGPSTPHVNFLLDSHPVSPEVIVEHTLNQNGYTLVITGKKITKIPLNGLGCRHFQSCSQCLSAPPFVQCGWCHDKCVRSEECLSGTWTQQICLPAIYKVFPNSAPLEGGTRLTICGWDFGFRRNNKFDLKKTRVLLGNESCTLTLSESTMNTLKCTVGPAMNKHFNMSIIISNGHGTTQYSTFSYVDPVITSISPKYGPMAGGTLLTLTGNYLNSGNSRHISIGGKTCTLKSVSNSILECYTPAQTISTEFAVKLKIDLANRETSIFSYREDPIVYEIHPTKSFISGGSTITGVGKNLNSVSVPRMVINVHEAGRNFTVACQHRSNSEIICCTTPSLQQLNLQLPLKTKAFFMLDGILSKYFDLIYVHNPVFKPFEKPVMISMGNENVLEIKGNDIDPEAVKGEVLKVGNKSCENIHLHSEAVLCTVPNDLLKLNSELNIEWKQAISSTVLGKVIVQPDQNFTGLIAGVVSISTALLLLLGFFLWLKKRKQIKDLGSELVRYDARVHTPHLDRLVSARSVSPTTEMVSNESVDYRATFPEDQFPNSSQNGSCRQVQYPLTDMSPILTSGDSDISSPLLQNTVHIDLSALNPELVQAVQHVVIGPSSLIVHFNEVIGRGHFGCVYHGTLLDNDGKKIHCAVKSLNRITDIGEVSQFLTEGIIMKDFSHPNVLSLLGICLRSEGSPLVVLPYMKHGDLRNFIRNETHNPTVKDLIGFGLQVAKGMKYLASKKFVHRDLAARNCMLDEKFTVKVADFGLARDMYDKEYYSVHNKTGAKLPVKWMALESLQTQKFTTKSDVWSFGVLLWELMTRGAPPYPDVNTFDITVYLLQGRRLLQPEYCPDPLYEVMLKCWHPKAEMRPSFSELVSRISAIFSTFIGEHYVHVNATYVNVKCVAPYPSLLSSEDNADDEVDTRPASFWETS

[20] = system: MDA-MB-468; test: Antiproliferative activity against human MDA-MB-468 cells harboring wild type BRCA1/2, HR-proficient and non-c-Met amplification assessed as inhibition of cell growth incubated for 7 days by MTT assay; type: functional, cell-based; details: MDA-MB-468, 168 h
[21] = system: MDA-MB-231; test: Antitumor activity against human MDA-MB-231 cells xenografted in female Balb/c nude mouse assessed as tumor growth inhibition at 50 mg/kg/day, ip qd administered for 28 days relative to control; type: functional; details: time 28 day
[22] = system: MDA-MB-231; test: Induction of apoptosis in human MDA-MB-231 cells assessed as late apoptotic cells at 1 uM incubated for 4 days in presence of crizotinib at 0.5 uM by Annexin V-FITC/PI staining based flow cytometry analysis (reference value: 0.81%); type: functional; details: time 4 day
[23] = system: Olaparib-resistant HCT116; test: Antitumor activity against human Olaparib-resistant HCT116 cells xenografted in female Balb/c nude mouse assessed as reduction in tumor weight at 50 mg/kg/day, ip qd administered for 21 days in presence of crizotinib at 25 mg/kg/day, po qd; type: functional, organism-based; details: time 21.0 day
[24] = system: MDA-MB-231; test: Antitumor activity against human MDA-MB-231 cells xenografted in female Balb/c nude mouse assessed as reduction in tumor weight at 50 mg/kg/day, ip qd administered for 28 days in presence of crizotinib at 25 mg/kg, po qd; type: functional, organism-based; details: time 28.0 day
[25] = system: MDA-MB-231; test: Induction of apoptosis in human MDA-MB-231 cells assessed as dead cells at 1 uM incubated for 4 days in presence of crizotinib at 0.5 uM by Annexin V-FITC/PI staining based flow cytometry analysis (reference value: 0.72%); type: functional; details: time 4 day
[26] = system: MDA-MB-231; test: Induction of apoptosis in human MDA-MB-231 cells assessed as early apoptotic cells at 1 uM incubated for 4 days in presence of crizotinib at 0.5 uM by Annexin V-FITC/PI staining based flow cytometry analysis (reference value: 3.88%); type: functional; details: time 4 day
[27] = system: Olaparib-resistant HCT116; test: Antitumor activity against human Olaparib-resistant HCT116 cells xenografted in female Balb/c nude mouse assessed as reduction in tumor weight at 50 mg/kg/day, ip qd administered for 21 days; type: functional, organism-based; details: time 21.0 day
[28] = system: MDA-MB-231; test: Induction of apoptosis in human MDA-MB-231 cells assessed as live cells at 1 uM incubated for 4 days in presence of crizotinib at 0.5 uM by Annexin V-FITC/PI staining based flow cytometry analysis (reference value: 94.6%); type: functional; details: time 4 day
[29] = system: Olaparib-resistant HCT116; test: Antitumor activity against human Olaparib-resistant HCT116 cells xenografted in female Balb/c nude mouse assessed as tumor growth inhibition at 50 mg/kg/day, ip qd administered for 21 days in presence of crizotinib at 25 mg/kg/day, po qd relative to control; type: functional; details: time 21 day
[30] = system: Olaparib-resistant HCT116; test: Antitumor activity against human Olaparib-resistant HCT116 cells xenografted in female Balb/c nude mouse assessed as reduction in tumor weight at 25 mg/kg/day, po qd administered for 21 days in presence of olaparib at 50 mg/kg/day, ip qd; type: functional, organism-based; details: time 21.0 day
[31] = system: MDA-MB-231; test: Antitumor activity against human MDA-MB-231 cells xenografted in female Balb/c nude mouse assessed as reduction in tumor weight at 50 mg/kg/day, ip qd administered for 28 days; type: functional, organism-based; details: time 28.0 day
[32] = system: Olaparib-resistant HCT116; test: Antitumor activity against human Olaparib-resistant HCT116 cells xenografted in female Balb/c nude mouse assessed as tumor growth inhibition at 50 mg/kg/day, ip qd administered for 21 days relative to control; type: functional; details: time 21 day
[33] = system: MDA-MB-231; test: Antitumor activity against human MDA-MB-231 cells xenografted in female Balb/c nude mouse assessed as tumor growth inhibition at 25 mg/kg/day, po qd administered for 28 days in presence of olaparib 50 mg/kg, ip qd relative to control; type: functional; details: MDA-MB-231, 672 h, time 28 day, read-out: TGI
[34] = system: Olaparib-resistant HCT116; test: Antitumor activity against human Olaparib-resistant HCT116 cells xenografted in female Balb/c nude mouse assessed as tumor growth inhibition at 25 mg/kg/day, po qd administered for 21 days relative to control; type: functional; details: Olaparib-resistant HCT116, 504 h, time 21 day, read-out: TGI
[35] = system: MDA-MB-231; test: Induction of apoptosis in human MDA-MB-231 cells assessed as dead cells at 0.5 uM incubated for 4 days in presence of olaparib at 1 uM by Annexin V-FITC/PI staining based flow cytometry analysis (reference value: 0.72%); type: functional; details: time 4 day
[36] = system: Olaparib-resistant HCT116; test: Antitumor activity against human Olaparib-resistant HCT116 cells xenografted in female Balb/c nude mouse assessed as tumor growth inhibition at 25 mg/kg/day, po qd administered for 21 days in presence of olaparib at 50 mg/kg/day, ip qd relative to control; type: functional; details: Olaparib-resistant HCT116, 504 h, time 21 day, read-out: TGI
[37] = system: MDA-MB-231; test: Induction of apoptosis in human MDA-MB-231 cells assessed as early apoptotic cells at 0.5 uM incubated for 4 days in presence of olaparib at 1 uM by Annexin V-FITC/PI staining based flow cytometry analysis (reference value: 3.88%); type: functional; details: time 4 day
[38] = system: MDA-MB-231; test: Antitumor activity against human MDA-MB-231 cells xenografted in female Balb/c nude mouse assessed as tumor growth inhibition at 25 mg/kg/day, po qd administered for 28 days relative to control; type: functional; details: MDA-MB-231, 672 h, time 28 day, read-out: TGI
[39] = system: MDA-MB-231; test: Antitumor activity against human MDA-MB-231 cells xenografted in female Balb/c nude mouse assessed as reduction in tumor weight at 25 mg/kg/day, po qd administered for 28 days; type: functional, organism-based; details: time 28.0 day
[40] = system: MDA-MB-231; test: Induction of apoptosis in human MDA-MB-231 cells assessed as live cells at 0.5 uM incubated for 4 days in presence of olaparib at 1 uM by Annexin V-FITC/PI staining based flow cytometry analysis (reference value: 94.6%); type: functional; details: time 4 day
[41] = system: MDA-MB-231; test: Antitumor activity against human MDA-MB-231 cells xenografted in female Balb/c nude mouse assessed as reduction in tumor weight at 25 mg/kg/day, po qd administered for 28 days in presence of olaparib 50 mg/kg, ip qd; type: functional, organism-based; details: time 28.0 day
[42] = system: Olaparib-resistant HCT116; test: Antitumor activity against human Olaparib-resistant HCT116 cells xenografted in female Balb/c nude mouse assessed as reduction in tumor weight at 25 mg/kg/day, po qd administered for 21 days; type: functional, organism-based; details: time 21.0 day
[43] = system: MDA-MB-231; test: Induction of apoptosis in human MDA-MB-231 cells assessed as late apoptotic cells at 0.5 uM incubated for 4 days in presence of olaparib at 1 uM by Annexin V-FITC/PI staining based flow cytometry analysis (reference value: 0.81%); type: functional; details: time 4 day

O=C(c1cc(Cc2n[nH]c(=O)c3ccccc23)ccc1F)N1CCN(c2ccc3c(OCCn4nc(-c5cccnc5)ccc4=O)ccnc3c2)CC1
Ratio IC50 [1]: 680
Ratio IC50 [2]: 10
Ratio IC50 [3]: 4
Activity [4]: 6.37%
IC50 [5]: 5.33 µM
IC50 [6]: 0.045 µM
Ratio IC50 [7]: 26
Activity [8]: 10.6%
Activity [9]: 78.5%
Activity [10]: 8.46%
Ratio IC50 [11]: 54
Activity [12]: 5%
IC50 [13]: 0.0033 µM
Activity [14]: 8.09%
IC50 at 72 h [15]: 8.73 µM
Activity [16]: 15.8%
Activity [17]: 67.2%
IC50 [18]: 4.57 µM
IC50 [19]: 0.0322 µM
IC50 [20]: 0.17 µM

O=C(c1cc(Cc2n[nH]c(=O)c3ccccc23)ccc1F)N1CCN(C(=O)C2CC2)CC1 [OLAPARIB]
TGI [21]: 27%
Activity [22]: 6.57%
Activity [23]: Active
Activity [4]: 4.86%
IC50 [5]: 50.8 µM
Activity [24]: Active
IC50 [6]: 30.7 µM
Activity [25]: 9.45%
Activity [26]: 7.12%
Activity [8]: 2.48%
Activity [27]: Active
Activity [28]: 76.9%
TGI [29]: 48%
Activity [30]: Active
Activity [16]: 3.77%
Activity [17]: 88.9%
Activity [31]: Active
IC50 [18]: 18.9 µM
IC50 [20]: 9.23 µM
TGI [32]: 26%

C[C@@H](Oc1cc(-c2cnn(C3CCNCC3)c2)cnc1N)c1c(Cl)ccc(F)c1Cl [CRIZOTINIB]
inhibition in vivo at 25 mg/kg/day [33]: 69%
inhibition in vivo at 25 mg/kg/day [34]: 21%
Activity [35]: 9.45%
inhibition in vivo at 25 mg/kg/day [36]: 48%
Activity [37]: 7.12%
inhibition in vivo at 25 mg/kg/day [38]: 6%
Activity [39]: Active
IC50 [5]: 3.15 µM
IC50 [6]: 8.37 µM
Activity [40]: 76.9%
Activity [9]: 90.9%
Activity [10]: 4.75%
Activity [41]: Active
Activity [12]: 2.23%
Activity [42]: Active
Activity [14]: 2.08%
IC50 [18]: 5.23 µM
IC50 [20]: 4.54 µM
Activity [43]: 6.57%
